Activity calls are given as the source filed them. No cut-off for these calls is given here.
Assays:
[1] = molecular target: Platelet-derived growth factor receptor alpha (Homo sapiens) (UniProt P16234); conditions: dose 1000.0 nM
Description: Inhibition of PDGFRalpha (unknown origin) at 1000 nM relative to control

MOLM-13 [2] = assay: Induction of apoptosis in human MOLM-13 cells assessed as downregulation of Bcl-2 level at 15 nM measured upto 12 hrs by Western blot analysis; format: functional, cell-based; conditions: time hrs <=12
[3] = molecular target: Tyrosine-protein kinase receptor UFO (Homo sapiens) (UniProt P30530); conditions: dose 1000.0 nM
Description: Inhibition of AXL (unknown origin) at 1000 nM relative to control

MV4-11 [4] = assay: Induction of apoptosis in human MV4-11 cells after 48 hrs by Annexin-V/PI staining based flow cytometry; format: functional, cell-based; conditions: dose 1.25-10 nM
[5] = molecular target: Mitogen-activated protein kinase 14 (Homo sapiens) (UniProt Q16539); conditions: dose 1000.0 nM
Description: Inhibition of p38alpha (unknown origin) at 1000 nM relative to control

[6] = system: Receptor-type tyrosine-protein kinase FLT3 (Homo sapiens), P36888 [D835Y]; conditions: dose 1000.0 nM
Description: Inhibition of FLT3 D835Y mutant (unknown origin) at 1000 nM relative to control

[7] = molecular target: Homeodomain-interacting protein kinase 1 (Homo sapiens) (UniProt Q86Z02); conditions: dose 1000.0 nM
Description: Inhibition of HIPK1 (unknown origin) at 1000 nM relative to control

[8] = Toxicity in NOD/SCID mouse xenografted with human MV4-11 cells assessed as effect on body weight at 3 mg/kg/day, iv administered for 12 hrs; format: organism-based; conditions: in vivo
MOLM-13 [9] = assay: Induction of apoptosis in human MOLM-13 cells assessed as upregulation of cleaved caspase-3 level at 15 nM by Western blot analysis; format: functional, cell-based; conditions: time 0-12 hrs, TDE = time-dependent effect
MOLM-13 [10] = assay: Reduction in intracellular ROS level in human MOLM-13 cells measured after 12 hrs by DCFH-DA probe based flow cytometry; format: functional, cell-based; conditions: dose 25-200 nM
[11] = system: Receptor-type tyrosine-protein kinase FLT3 (Homo sapiens), P36888 [UNDEFINED MUTATION]; conditions: dose 1000.0 nM
Description: Inhibition of FLT3 ITD mutant (unknown origin) at 1000 nM relative to control

[12] = molecular target: Receptor-type tyrosine-protein kinase FLT3 (Homo sapiens) (UniProt P36888); assay: Inhibition of FLT3 in human MOLM-13 cells assessed as reduction in AKT phosphorylation at 15 nM by Western blot analysis; format: cell-based; conditions: time 0-12 hrs, TDE = time-dependent effect
[13] = molecular target: Receptor-type tyrosine-protein kinase FLT3 (Homo sapiens) (UniProt P36888); conditions: dose 1000.0 nM
Description: Inhibition of FLT3 (unknown origin) at 1000 nM relative to control

[14] = molecular target: Mast/stem cell growth factor receptor Kit (Homo sapiens) (UniProt P10721); assay: Inhibition of KIT in human MV4-11 cells assessed as reduction in PI3K phosphorylation at 5 to 25 nM after 24 hrs by Western blot analysis; format: cell-based; conditions: dose 5-25 nM
[15] = molecular target: Serine/threonine-protein kinase MARK1 (Homo sapiens) (UniProt Q9P0L2); assay: Inhibition of MARK1 (unknown origin) at 1000 nM relative to control
[16] = system: Receptor-type tyrosine-protein kinase FLT3 (Homo sapiens), P36888 [UNDEFINED MUTATION]; assay: Induction of FLT3-ITD degradation in human MV4-11 cells at 20 nM pretreated with MG132 for 2 hrs followed compound addition for 6 hrs by Western blot analysis; format: cell-based
[17] = molecular target: Receptor-type tyrosine-protein kinase FLT3 (Homo sapiens) (UniProt P36888); assay: Inhibition of FLT3 in human MOLM-13 cells assessed as reduction in FLT3 phosphorylation at 15 nM by Western blot analysis; format: cell-based; conditions: time 0-12 hrs, TDE = time-dependent effect
[18] = molecular target: Fibroblast growth factor receptor 1 (Homo sapiens) (UniProt P11362); conditions: dose 1000.0 nM
Description: Inhibition of FGFR1 (unknown origin) at 1000 nM relative to control

[19] = molecular target: Mitogen-activated protein kinase 1 (Homo sapiens) (UniProt P28482); assay: Inhibition of ERK2 (unknown origin) at 1000 nM relative to control
MV4-11 [20] = assay: Induction of apoptosis in human MV4-11 cells assessed as downregulation of Mcl-1 level at 15 nM measured upto 12 hrs by Western blot analysis; format: functional, cell-based; conditions: time hrs <=12
MV4-11 [21] = assay: Antiproliferative activity against human MV4-11 cells incubated for 48 hrs by CCK-8 assay; format: functional, cell-based; conditions: MV4-11, 48 h
[22] = molecular target: Mitogen-activated protein kinase 8 (Homo sapiens) (UniProt P45983); assay: Inhibition of JNK1 (unknown origin) at 1000 nM relative to control
[23] = molecular target: Receptor-type tyrosine-protein kinase FLT3 (Homo sapiens) (UniProt P36888); assay: Inhibition of FLT3 in human MV4-11 cells assessed as reduction in FLT3 phosphorylation at 15 nM by Western blot analysis; format: cell-based; conditions: time 0-12 hrs, TDE = time-dependent effect
[24] = system: Receptor-type tyrosine-protein kinase FLT3 (Homo sapiens), P36888 [UNDEFINED MUTATION]; assay: Induction of FLT3-ITD degradation in human MV4-11 cells at 20 nM pretreated with dov for 2 hrs followed compound addition for 6 hrs by Western blot analysis; format: cell-based
[25] = molecular target: Mast/stem cell growth factor receptor Kit (Homo sapiens) (UniProt P10721); assay: Inhibition of KIT in human MV4-11 cells assessed as reduction in STAT3 phosphorylation at 5 to 25 nM after 24 hrs by Western blot analysis; format: cell-based; conditions: dose 5-25 nM
[26] = molecular target: Receptor tyrosine-protein kinase erbB-2 (Homo sapiens) (UniProt P04626); assay: Inhibition of HER2 (unknown origin) at 1000 nM relative to control
[27] = molecular target: Receptor tyrosine-protein kinase erbB-4 (Homo sapiens) (UniProt Q15303); conditions: dose 1000.0 nM
Description: Inhibition of HER4 (unknown origin) at 1000 nM relative to control

[28] = molecular target: Fibroblast growth factor receptor 2 (Homo sapiens) (UniProt P21802); conditions: dose 1000.0 nM
Description: Inhibition of FGFR2 (unknown origin) at 1000 nM relative to control

[29] = molecular target: Mast/stem cell growth factor receptor Kit (Homo sapiens) (UniProt P10721); assay: Inhibition of KIT in human MOLM-13 cells assessed as reduction in PI3K phosphorylation at 5 to 25 nM after 24 hrs by Western blot analysis; format: cell-based; conditions: dose 5-25 nM
[30] = molecular target: Proto-oncogene tyrosine-protein kinase receptor Ret (Homo sapiens) (UniProt P07949); conditions: dose 1000.0 nM
Description: Inhibition of RET (unknown origin) at 1000 nM relative to control

[31] = molecular target: Serine/threonine-protein kinase 4 (Homo sapiens) (UniProt Q13043); assay: Inhibition of MST1 (unknown origin) at 1000 nM relative to control
[32] = molecular target: Serine/threonine-protein kinase Chk2 (Homo sapiens) (UniProt O96017); assay: Inhibition of CHK2 (unknown origin) at 1000 nM relative to control
[33] = molecular target: Tyrosine-protein kinase JAK3 (Homo sapiens) (UniProt P52333); assay: Inhibition of JAK3 (unknown origin) at 1000 nM relative to control
[34] = molecular target: Hepatocyte growth factor receptor (Homo sapiens) (UniProt P08581); assay: Inhibition of C-MET (unknown origin) at 1000 nM relative to control
[35] = molecular target: Mitogen-activated protein kinase kinase kinase kinase 1 (Homo sapiens) (UniProt Q92918); assay: Inhibition of HPK1 (unknown origin) at 1000 nM relative to control
[36] = molecular target: Tyrosine-protein kinase Lck (Homo sapiens) (UniProt P06239); conditions: dose 1000.0 nM
Description: Inhibition of LCK (unknown origin) at 1000 nM relative to control

[37] = system: Receptor-type tyrosine-protein kinase FLT3 (Homo sapiens), P36888 [UNDEFINED MUTATION]; assay: Induction of FLT3-ITD degradation in human MV4-11 cells at 20 nM pretreated with pomalidomide for 2 hrs followed compound addition for 6 hrs by Western blot analysis; format: cell-based
[38] = molecular target: Aurora kinase A (Homo sapiens) (UniProt O14965); assay: Inhibition of AURORA-A (unknown origin) at 1000 nM relative to control
[39] = molecular target: Glycogen synthase kinase-3 alpha (Homo sapiens) (UniProt P49840); assay: Inhibition of GSK3alpha (unknown origin) at 1000 nM relative to control

Mast/stem cell growth factor receptor Kit (Homo sapiens), sequence (P10721 whole entry): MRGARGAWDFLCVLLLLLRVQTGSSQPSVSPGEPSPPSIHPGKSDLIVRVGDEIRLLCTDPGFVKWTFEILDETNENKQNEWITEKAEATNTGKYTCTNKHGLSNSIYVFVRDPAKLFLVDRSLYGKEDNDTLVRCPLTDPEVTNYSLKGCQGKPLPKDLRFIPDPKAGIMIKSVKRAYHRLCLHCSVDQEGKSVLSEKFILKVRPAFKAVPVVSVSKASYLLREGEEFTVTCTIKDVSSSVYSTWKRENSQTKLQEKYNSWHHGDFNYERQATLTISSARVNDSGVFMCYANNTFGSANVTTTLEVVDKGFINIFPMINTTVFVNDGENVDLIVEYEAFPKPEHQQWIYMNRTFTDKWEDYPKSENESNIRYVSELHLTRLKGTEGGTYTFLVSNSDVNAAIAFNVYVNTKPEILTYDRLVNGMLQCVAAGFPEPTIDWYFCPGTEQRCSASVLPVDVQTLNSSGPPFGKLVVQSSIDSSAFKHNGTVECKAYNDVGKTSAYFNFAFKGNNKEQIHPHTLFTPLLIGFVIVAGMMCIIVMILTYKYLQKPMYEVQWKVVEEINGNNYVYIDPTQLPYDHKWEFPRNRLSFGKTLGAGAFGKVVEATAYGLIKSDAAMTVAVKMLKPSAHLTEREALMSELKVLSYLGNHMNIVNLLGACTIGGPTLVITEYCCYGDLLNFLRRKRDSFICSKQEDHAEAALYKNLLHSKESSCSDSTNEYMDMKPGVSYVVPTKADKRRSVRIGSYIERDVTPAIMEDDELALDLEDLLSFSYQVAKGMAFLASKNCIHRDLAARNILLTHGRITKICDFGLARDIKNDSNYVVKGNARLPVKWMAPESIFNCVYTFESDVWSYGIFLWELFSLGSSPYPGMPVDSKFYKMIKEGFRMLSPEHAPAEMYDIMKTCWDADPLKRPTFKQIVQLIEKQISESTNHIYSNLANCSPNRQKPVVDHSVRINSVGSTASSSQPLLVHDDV
Aurora kinase A (Homo sapiens), sequence (O14965 whole entry): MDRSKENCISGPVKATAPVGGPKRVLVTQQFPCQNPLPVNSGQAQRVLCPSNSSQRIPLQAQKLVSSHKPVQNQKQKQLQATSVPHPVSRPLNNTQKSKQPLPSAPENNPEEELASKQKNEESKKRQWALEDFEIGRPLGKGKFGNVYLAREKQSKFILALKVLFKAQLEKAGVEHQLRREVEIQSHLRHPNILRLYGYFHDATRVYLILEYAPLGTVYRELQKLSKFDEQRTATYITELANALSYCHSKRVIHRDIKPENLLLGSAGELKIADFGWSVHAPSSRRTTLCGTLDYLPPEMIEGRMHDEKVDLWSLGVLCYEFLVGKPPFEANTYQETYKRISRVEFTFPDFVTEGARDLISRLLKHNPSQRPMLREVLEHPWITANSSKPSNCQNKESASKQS
Tyrosine-protein kinase receptor UFO (Homo sapiens), sequence (P30530 whole entry): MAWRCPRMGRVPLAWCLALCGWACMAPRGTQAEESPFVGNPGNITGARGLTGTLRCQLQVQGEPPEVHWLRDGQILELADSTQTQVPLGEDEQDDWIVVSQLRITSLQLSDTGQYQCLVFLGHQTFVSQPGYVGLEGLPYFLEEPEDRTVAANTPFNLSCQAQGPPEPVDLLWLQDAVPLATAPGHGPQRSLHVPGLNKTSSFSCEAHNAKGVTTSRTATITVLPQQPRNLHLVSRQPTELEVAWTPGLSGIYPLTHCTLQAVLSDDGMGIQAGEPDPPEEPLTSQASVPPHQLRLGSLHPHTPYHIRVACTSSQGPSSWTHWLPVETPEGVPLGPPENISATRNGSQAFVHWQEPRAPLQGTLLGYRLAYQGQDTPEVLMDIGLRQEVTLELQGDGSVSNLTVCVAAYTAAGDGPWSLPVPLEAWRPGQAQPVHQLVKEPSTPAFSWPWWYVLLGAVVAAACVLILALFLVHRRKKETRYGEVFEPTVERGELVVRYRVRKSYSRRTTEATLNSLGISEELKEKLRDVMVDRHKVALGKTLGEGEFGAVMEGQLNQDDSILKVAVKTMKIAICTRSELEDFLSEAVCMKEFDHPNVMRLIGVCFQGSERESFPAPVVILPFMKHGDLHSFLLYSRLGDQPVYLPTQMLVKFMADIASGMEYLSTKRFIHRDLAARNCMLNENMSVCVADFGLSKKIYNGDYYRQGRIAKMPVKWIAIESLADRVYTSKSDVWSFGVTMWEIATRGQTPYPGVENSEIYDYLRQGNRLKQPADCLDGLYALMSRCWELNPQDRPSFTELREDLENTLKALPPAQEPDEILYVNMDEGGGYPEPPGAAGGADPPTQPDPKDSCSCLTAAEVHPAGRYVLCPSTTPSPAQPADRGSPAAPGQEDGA
Fibroblast growth factor receptor 2 (Homo sapiens), sequence (P21802 22-821 limits assumed): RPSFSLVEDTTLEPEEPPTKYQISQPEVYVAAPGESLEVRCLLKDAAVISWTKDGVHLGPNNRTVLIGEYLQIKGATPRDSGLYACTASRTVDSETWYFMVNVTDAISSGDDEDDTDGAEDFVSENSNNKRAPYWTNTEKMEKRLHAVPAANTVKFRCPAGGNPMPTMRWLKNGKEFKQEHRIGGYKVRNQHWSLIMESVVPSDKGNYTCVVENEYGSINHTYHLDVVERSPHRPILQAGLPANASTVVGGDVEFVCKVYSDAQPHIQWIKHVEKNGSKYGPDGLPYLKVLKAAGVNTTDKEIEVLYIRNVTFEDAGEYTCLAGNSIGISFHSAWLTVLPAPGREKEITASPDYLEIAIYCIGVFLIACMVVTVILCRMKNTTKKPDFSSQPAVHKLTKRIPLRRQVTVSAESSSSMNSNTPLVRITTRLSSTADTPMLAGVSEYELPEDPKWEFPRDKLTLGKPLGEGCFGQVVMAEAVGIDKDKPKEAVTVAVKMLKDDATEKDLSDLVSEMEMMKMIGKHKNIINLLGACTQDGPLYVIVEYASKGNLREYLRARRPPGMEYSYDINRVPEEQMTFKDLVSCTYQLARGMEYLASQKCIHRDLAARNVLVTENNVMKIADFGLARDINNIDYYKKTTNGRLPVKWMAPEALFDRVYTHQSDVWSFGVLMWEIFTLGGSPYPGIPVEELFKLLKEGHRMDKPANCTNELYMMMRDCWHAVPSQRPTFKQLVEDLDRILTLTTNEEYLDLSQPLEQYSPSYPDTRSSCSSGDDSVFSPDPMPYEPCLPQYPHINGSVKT
Fibroblast growth factor receptor 1 (Homo sapiens), sequence (P11362 22-822 limits assumed): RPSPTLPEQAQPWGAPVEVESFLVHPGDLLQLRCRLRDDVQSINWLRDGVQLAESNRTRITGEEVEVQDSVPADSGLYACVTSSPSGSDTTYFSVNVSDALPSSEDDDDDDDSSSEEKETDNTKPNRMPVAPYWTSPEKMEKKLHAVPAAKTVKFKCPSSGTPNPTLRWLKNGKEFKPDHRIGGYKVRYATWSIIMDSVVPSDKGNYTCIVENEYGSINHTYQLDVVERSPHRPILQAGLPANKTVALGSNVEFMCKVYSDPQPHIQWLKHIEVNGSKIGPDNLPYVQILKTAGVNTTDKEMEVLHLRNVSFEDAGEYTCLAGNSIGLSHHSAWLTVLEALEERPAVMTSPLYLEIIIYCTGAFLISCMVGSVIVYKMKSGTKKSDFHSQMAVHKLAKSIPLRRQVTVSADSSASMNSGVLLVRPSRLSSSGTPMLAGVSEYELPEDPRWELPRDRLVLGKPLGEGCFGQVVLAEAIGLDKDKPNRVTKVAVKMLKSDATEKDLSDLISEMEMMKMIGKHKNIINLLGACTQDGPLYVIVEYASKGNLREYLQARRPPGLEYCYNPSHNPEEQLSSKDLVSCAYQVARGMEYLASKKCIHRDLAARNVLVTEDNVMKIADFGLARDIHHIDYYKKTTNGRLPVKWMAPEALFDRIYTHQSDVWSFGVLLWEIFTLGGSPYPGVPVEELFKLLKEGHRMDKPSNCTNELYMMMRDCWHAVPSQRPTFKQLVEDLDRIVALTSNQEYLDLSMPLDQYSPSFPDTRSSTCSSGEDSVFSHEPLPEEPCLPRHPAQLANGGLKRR
Homeodomain-interacting protein kinase 1 (Homo sapiens), sequence (Q86Z02 whole entry, looked up): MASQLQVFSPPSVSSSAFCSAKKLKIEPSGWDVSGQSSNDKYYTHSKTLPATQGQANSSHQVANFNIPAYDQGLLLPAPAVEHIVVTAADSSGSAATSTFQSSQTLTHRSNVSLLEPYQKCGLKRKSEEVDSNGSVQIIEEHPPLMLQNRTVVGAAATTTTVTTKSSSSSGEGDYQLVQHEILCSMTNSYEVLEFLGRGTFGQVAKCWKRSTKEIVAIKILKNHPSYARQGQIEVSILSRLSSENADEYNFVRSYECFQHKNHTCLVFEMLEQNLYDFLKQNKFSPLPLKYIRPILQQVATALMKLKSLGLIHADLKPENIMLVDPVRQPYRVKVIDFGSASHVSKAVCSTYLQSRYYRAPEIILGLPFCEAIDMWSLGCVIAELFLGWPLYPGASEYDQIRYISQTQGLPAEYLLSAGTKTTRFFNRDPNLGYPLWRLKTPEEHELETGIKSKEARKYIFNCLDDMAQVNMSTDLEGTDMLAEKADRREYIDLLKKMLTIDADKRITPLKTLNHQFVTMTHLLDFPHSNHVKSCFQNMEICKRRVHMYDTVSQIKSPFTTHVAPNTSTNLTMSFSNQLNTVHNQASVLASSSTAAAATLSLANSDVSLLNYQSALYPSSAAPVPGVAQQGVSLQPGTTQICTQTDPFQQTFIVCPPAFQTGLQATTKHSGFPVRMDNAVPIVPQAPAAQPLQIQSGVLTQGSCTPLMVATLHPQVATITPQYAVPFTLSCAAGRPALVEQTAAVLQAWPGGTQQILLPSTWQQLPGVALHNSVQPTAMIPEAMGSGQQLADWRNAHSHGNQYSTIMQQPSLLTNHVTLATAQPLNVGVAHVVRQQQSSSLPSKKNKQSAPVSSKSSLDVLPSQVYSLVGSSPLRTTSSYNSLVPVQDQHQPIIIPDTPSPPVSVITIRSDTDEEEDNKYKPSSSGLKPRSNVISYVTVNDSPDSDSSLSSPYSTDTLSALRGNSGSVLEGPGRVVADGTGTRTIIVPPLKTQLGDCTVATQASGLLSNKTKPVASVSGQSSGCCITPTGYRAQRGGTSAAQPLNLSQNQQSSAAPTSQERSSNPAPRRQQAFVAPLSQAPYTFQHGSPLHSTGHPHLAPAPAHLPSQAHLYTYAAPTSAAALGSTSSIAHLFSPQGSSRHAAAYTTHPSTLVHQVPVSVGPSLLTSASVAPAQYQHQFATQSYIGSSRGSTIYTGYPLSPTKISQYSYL

For `Nc1c(-c2nc3cc(N4CCN(C(=O)CCCCCNc5cccc6c5C(=O)N(C5CCC(=O)NC5=O)C6=O)CC4)ccc3[nH]2)c(=O)[nH]c2cccc(F)c12` (centres undefined), the inhibition [1] was 82%, the Activity (MOLM-13 [2]) was “Active” and the inhibition [3] was 20%. For the same compound, the Activity (MV4-11 [4]) was “Dose-Dependent Effect”, the inhibition [5] was 12% and the inhibition [6] was 95%. The inhibition [7] was 5%, the Activity [8] was “Non-Toxic” and the Activity (MOLM-13 [9]) was “Tde”. For the same compound, the Activity (MOLM-13 [10]) was “Dose-Dependent Effect”, the inhibition [11] was 98% and the inhibition [12] was “Tde”. For the same compound, the inhibition [13] was 93%, the inhibition [14] was “Active” and the inhibition [15] was 17%. For the same compound, the Activity [16] was “inactive”, the inhibition [17] was “Tde” and the inhibition [18] was 17%. For the same compound, the inhibition [19] was 38%, the Activity (MV4-11 [20]) was “Active” and the IC50 (MV4-11 [21]) was 9.2 nM. For the same compound, the inhibition [22] was -8%, the inhibition [23] was “Tde” and the Activity [24] was “inactive”. The inhibition [25] was “Active”, the inhibition [26] was 50% and the inhibition [27] was 14%. The inhibition [28] was 34%, the inhibition [29] was “Active” and the inhibition [30] was 39%. The inhibition [31] was 32%, the inhibition [32] was 0% and the inhibition [33] was 1%. It also gave an inhibition [34] of 15%, an inhibition [35] of 49% and an inhibition [36] of 16%. For the same compound, the Activity [37] was “inactive”, the inhibition [38] was 17% and the inhibition [39] was 3%.

Reference: ChEMBL document CHEMBL4840352 (J Med Chem, 2021)
